# Test results reported in US20110262365A1 (priority 2008, published 2011).
# Tested on: skin of the subject
# Experiment: Intradermal skin test for hypersensitivity to female reproductive hormones, case reports
# Assay type: in vivo, human
# Conditions: for Skin test result, Case 2: person one; for Skin test result, Case 6 / Skin test result, Case 7 / Skin test result, Case 4 / Skin test result, Case 1 / Skin test result, Case 5: person; for Skin test result, Case 6: menopausal syndrome; for Skin test result, Case 6 / Skin test result, Case 7: severe hot flashes; for Skin test result, Case 7: menopause; for Skin test result, Case 4: recurrent habitual abortions and severe PMS; for Skin test result, Case 1: severe premenstrual headaches, insomnia, acne; for Skin test result, Case 5: premenopausal syndrome, severe hot flashes and night sweats
# Experimental: The skin test included the use of three fractions of estrogen (E1, E2 and E3) and progesterone (P), along with suitable controls. Each hormone solution was intradermally administered at a volume of 20-160 μl.
# Skin test method using estriol, estrone, estradiol and/or progesterone and monitoring the immediate, late and delayed immuno-reaction to the injected hormones
# 1. The hormones (Table 1) diluted in solvents (Table 2) and controls (Table 3) in the above described dosages were administered intradermally into subjects.
# 2. Timing of intradermal administration and evaluation of the skin reaction was dependent on the tested subject.
# (i) In case of fertile woman: Intradermal administration of the hormones/controls initiated at the luteal phase of menstrual cycle;
# Tracking (evaluation of skin reaction) was after 20 minutes, after 48 hours and daily during the next 30 day (or a complete menstrual cycle).
# (ii) Other Cases (non-fertile subjects): Intradermal administration of the hormones/controls initiated at any time;
# Tracking (evaluation of skin reaction) was after 20 minutes, after 48 hours and daily during the next 7 day.
# 3. Measurement of wheal diameter—The wheal is formed on the skin in response to the intradermal administration of the hormone. Since the wheal responses are rarely regular or circular the wheal diameter is calculated using the following formula I.
# wheal diameter=(D+d)/2 Formula I: […]
# where D is the maximum diameter and d is perpendicular diameter.
# 4. Comparison with the controls was as follows:
# (i) In case of a negative reaction to histamine (wheal diameter smaller than 5 mm), the result indicates Familial Dysautonomia disease (the subject is advised to seek other treatment);
# (ii) In case of a positive reaction to saline (wheal diameter equals or larger than 5 mm), the test should be repeated;
# (iv) In case of a similar or smaller reaction (wheal diameter) as compared to solvent reaction, there is no sensitivity to the tested hormone and desensitization is optional;
# (v) Exception—In case the skin reaction (wheal diameter) is larger than 20 mm, the subject should not be treated and is referred to testing of cancer, systemic auto-immune diseases and other serous diseases.
# Following is a description of several cases of subjects which were diagnosed and treated according to the method of some embodiments of the invention. The concentrations of hormones used in the description of the following cases 1-7 and in Table 9 below were as follow:
# E1 (Estrone)—3 mM (millimole/Liter); 0.811 grams/liter;
# E2 —(estradiol)—1 mM (millimole/Liter); 0.3565 grams/liter;
# E3 (estriol)—3 mM (millimole/Liter); 0.86514 grams/liter;
# P (progesterone)—1 mM (millimole/Liter); 0.3144 grams/liter;
# [1] = habitual abortions and severe PMS
"Skin test result, Case 4",Compound,"Skin test result, Case 2 [1]","Skin test result, Case 3 (person two, habitual abortions and severe PMS)","Skin test result, Case 6","Skin test result, Case 7","Skin test result, Case 1 (BMI=31)","Skin test result, Case 5","Skin test result, Case 1 (BMI=31, listed as Progesterone)"
delayed-type hypersensitivity reaction,"C[C@]12CC[C@@H]3c4ccc(O)cc4CC[C@H]3[C@@H]1C[C@@H](O)[C@@H]2O [estriol, Estriol]",,,Hypersensitivity (delayed type after 48 hours and 5 days),,delayed-type hypersensitivity reaction,delayed-type hypersensitivity reaction (after 48 hours),
delayed-type hypersensitivity reaction,"CC(=O)[C@H]1CC[C@H]2[C@@H]3CCC4=CC(=O)CC[C@]4(C)[C@H]3CC[C@]12C [progesterone, Progesterone]",positive delayed-type hypersensitivity reaction,,,delayed-type (after 48 hours and 6 days) hypersensitivity reaction,,delayed-type hypersensitivity reaction (after 48 hours),"delayed-type hypersensitivity reaction to estriol and estradiol, higher than to Progesterone"

Compound,"Skin test result, Case 4","Skin test result, Case 2 [1]","Skin test result, Case 3 (person two, habitual abortions and severe PMS)","Skin test result, Case 6","Skin test result, Case 7","Skin test result, Case 1 (BMI=31)","Skin test result, Case 5","Skin test result, Case 1 (BMI=31, listed as Progesterone)"
17 beta Estradiol Valerate,delayed-type hypersensitivity reaction,positive delayed-type hypersensitivity reaction,delayed-type hypersensitivity reaction,Hypersensitivity (delayed type after 48 hours and 5 days),delayed-type (after 48 hours and 6 days) hypersensitivity reaction,delayed-type hypersensitivity reaction,,
